{"source": "patent US11352399B2", "about": "“Peptide for toll-like receptor (TLR) inhibition and pharmaceutical composition comprising same” (GENESEN CO., LTD., priority 2017, dated 2022)", "key": {"[1]": {"target": "T1, BB-loop and C-terminal region of the TIR domain of TLR4 (Homo sapiens, UniProt O00206)", "T1 construct": "purchased Peptron, Inc; host or cells: chemical synthesis", "experiment": "Surface plasmon resonance (SPR) assay", "assay_type": "binding", "details": "conclusion of Experimental Example 8; no SPR constants printed", "procedure": "Surface plasmon resonance assay was performed using a ProteOn XPR36 instrument (Bio-Rad Laboratories, Inc.) with a ProteOn NLC sensor chip. Specifically, a synthetic peptide encoding BB-loop ([…]) (SEQ ID NO: 54) and C-terminal region ([…]) (SEQ ID NO: 55) of the TIR domain was immobilized on the surface of the NLC sensor chip using NeutrAvidin bound to the GLC polymer layer. For a control, PBS supplemented with 0.05% Tween 20, which is a running buffer, was flowed. […] After the measurement, the surface of the sensor chip was regenerated using 0.85% phosphoric acid or PBST. […] The equilibrium dissociation constant KD was calculated using the equation KD=Kd/Ka."}, "hPBMC cells": {"system": "hPBMC cells", "experiment": "NO secretion in LPS-treated hPBMC cells", "assay_type": "cell-based, human", "details": "together with LPS, FIG. 12(b)"}, "TLR4 signaling pathways": {"system": "TLR4 signaling pathways", "experiment": "Western blotting of NF-κB, IRF3 and MAPK in LPS-treated RAW 264.7 cells", "assay_type": "cell-based, mouse", "procedure": "In order to perform Western blotting, a pre-protein extraction solution (M-PER, Thermo Fisher Scientific Inc.) was mixed with a protease and phosphatase inhibitor mixture, and was added to RAW 264.7 cell or hPBMC cell pellets. The pellets were cooled for 10 minutes, and then the lysates were centrifuged at 16000×g for 10 minutes. Then, NE-PER nuclear and cytoplasmic extraction reagents (Thermo Fisher Scientific Inc.) were used to extract cytoplasmic and nuclear proteins, respectively, and a BCA kit (Sigma-Alderich Co. LLC) was used to measure concentrations of the proteins. Subsequently, the same amounts of proteins were developed on SDS-polyacrylamide gels, and electrophoresis was performed using the Mini-PROTEAN Tetra Cell two-dimensional electrophoresis system (Bio-Rad Laboratories, Hercules, Calif., USA). The membrane was immunoblotted with primary antibodies by gentle shaking overnight at a temperature of 4° C. (in which the primary antibodies were antibodies against p-p65, p-JNK, p-IRF3, ERK, p38, and human IL-1β (Cell Signaling Technology Inc., Danvers, Mass., USA); p-ERK, p-p38, Iκ-Bα, JNK, ATF3, COX2, caspase-1, and β-actin (Santa Cruz Biotechnology Inc., Santa Cruz, Calif., USA); iNOS (BD Biosciences); IL-6 and mouse IL-1β (R&D Systems Inc., Minneapolis, Minn., USA); TNF-α (Thermo Fisher Scientific, Inc.); NLRP3 (Adipogen, San Diego, Calif., USA)). Then, after thorough shaking with PBST, the membrane was incubated with anti-mouse/-rabbit HRP-conjugated secondary antibodies (Thermo Fisher Scientific Inc.) for 2 hours; and the proteins were detected with SuperSignal West Pico ECL solution (Thermo Fisher Scientific Inc.) and were visualized with the Fuji LAS-3000 system (Fujifilm, Tokyo, Japan).\nTLR4-mediated responses induced by LPS induce direct interactions between the TIR domain of TIRAP and MyD88, thereby activating MyD88-dependent signaling pathways. In addition, the TLR4-mediated responses induce interactions between the TIR domain of TRAM and TRIF, thereby also activating MyD88-independent signaling pathways. […]"}, "[2]": {"system": "mBMDM cells (LPS-induced)", "experiment": "LPS-induced cytokine and NO secretion in mBMDM cells", "assay_type": "cell-based, mouse", "procedure": "RAW 264.7 cells, THP1 cells, and mBMDM cells were dispensed into 96-well plates to a cell number of 2×10^5 cells/well, or into 24-well plates to a cell number of 5×10^5 cells/well. Incubation was performed overnight. Subsequently, combined treatment with TIP1 and LPS was performed. After 24 hours, secretion levels of IFN-β, IL-6, and TNF-α were measured using a […] (BioLegend), Mouse IL-6 Platinum ELISA (eBiosciences), and a Mouse TNF alpha ELISA Ready SET-Go! kit (eBiosciences). Absorbance was measured at 450 nm using a microplate reader spectrophotometer (Molecular Devices), and the results were analyzed using Softmax Pro 5.3 software (Molecular Devices Inc.).\nRAW 264.7 cells and mBMDM cells were dispensed into 96-well plates (BD Biosciences) to a cell number of 2×10^5 cells/well and incubated overnight. Then, a NO level of the culture supernatant was measured using a NO detection kit (iNtRON Biotechnology Inc., Seongnam, Korea). Absorbance was measured at 550 nm using a microplate reader spectrophotometer (Molecular Devices Inc.), and the results were analyzed using Softmax Pro 5.3 software (Molecular Devices Inc.).\nTNF-α, IL-6, IFN-β levels in the culture supernatant of mBMDM cells were measured using mouse TNF-α, IL-6, IFN-β Ready-SET-Go! ELISA kits according to the method described in Example 2-5, and a NO level in the supernatant was measured according to the method described in Example 2-7. The results are illustrated in FIGS. 6(a)-6(d)."}, "TLR2/6": {"target": "T2, TLR2/6 (Mus musculus, UniProt Q9EPW9+Q9QUN7)", "T2 construct": "host or cells: RAW 264.7", "T2 sequence (Q9QUN7 25-784)": "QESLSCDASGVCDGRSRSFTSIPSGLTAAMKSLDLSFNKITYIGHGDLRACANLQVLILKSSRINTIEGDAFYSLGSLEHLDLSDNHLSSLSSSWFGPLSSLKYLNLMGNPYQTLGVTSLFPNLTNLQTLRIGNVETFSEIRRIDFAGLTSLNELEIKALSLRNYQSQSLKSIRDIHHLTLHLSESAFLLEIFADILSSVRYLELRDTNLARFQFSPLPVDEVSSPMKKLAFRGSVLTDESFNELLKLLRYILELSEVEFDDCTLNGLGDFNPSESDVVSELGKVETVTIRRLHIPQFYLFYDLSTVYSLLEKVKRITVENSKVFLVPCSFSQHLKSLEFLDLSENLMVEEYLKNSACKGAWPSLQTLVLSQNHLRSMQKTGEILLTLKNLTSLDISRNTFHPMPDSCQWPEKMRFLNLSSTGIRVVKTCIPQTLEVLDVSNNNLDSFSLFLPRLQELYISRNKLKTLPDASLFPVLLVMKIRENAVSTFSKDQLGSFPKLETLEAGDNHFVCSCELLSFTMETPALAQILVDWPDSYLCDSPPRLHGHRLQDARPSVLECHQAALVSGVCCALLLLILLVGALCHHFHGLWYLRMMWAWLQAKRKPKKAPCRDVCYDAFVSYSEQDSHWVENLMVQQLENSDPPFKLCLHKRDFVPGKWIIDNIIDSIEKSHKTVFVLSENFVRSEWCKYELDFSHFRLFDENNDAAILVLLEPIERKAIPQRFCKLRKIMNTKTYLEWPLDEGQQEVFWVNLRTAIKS", "T2 sequence (Q9EPW9 28-795)": "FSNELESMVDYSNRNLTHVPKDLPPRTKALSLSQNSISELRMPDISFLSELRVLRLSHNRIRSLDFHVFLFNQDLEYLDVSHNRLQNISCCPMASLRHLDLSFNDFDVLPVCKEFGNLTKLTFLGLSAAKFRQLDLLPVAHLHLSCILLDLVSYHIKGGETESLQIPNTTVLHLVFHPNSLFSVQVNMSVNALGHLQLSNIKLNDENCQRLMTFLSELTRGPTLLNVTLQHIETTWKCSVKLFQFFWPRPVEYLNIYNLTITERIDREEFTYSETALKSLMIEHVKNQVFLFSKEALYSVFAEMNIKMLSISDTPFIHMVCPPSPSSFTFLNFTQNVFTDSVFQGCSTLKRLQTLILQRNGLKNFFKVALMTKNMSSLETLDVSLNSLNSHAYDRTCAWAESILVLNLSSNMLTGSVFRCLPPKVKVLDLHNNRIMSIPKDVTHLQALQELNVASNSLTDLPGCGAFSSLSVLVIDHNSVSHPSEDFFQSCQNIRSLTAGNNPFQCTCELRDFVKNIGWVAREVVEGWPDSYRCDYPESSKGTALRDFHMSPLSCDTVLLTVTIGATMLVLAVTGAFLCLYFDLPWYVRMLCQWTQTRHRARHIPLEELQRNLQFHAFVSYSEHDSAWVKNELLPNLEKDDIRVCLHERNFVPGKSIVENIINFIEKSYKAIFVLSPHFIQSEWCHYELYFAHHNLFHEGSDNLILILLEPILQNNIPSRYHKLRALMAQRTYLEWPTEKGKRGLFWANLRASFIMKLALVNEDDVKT", "experiment": "TNF-α secretion in RAW 264.7 cells with FSL-1", "assay_type": "cell-based"}, "NLRP3 inflammasome": {"system": "NLRP3 inflammasome", "experiment": "Western blotting of NLRP3 inflammasome molecules in LPS/ATP-treated mBMDM cells", "assay_type": "cell-based, mouse"}, "[3]": {"details": "LPS together with TIP1, FIG. 2(a)"}}}
{"sequence": "RQIKIWFQNRRMKWKKSHCRVLLI (TIP1)", "values": [{"measurement": "binding to TIR domain regions of TLR4", "setting": "[1]", "value": "binding to the C-terminal tail and the BB loop among the TIR domains of TLR4"}, {"measurement": "NO secretion level", "setting": "hPBMC cells", "value": "highest decreasing effect on NO secretion level"}, {"measurement": "NF-κB activity (Western blotting)", "setting": "TLR4 signaling pathways; [3]", "value": "NF-κB activity was inhibited"}, {"measurement": "degree of degradation of Iκ-Bα, and activity of IRF3 and ATF3", "setting": "TLR4 signaling pathways; [3]", "value": "decreased"}, {"measurement": "MAPK activity (phosphorylation of ERK, JNK, p38)", "setting": "TLR4 signaling pathways; LPS together with TIP1, FIG. 2(b)", "value": "MAPK activity was inhibited"}, {"measurement": "LPS-induced secretion level of IL-6", "setting": "[2]", "value": "decreased"}, {"measurement": "LPS-induced secretion level of NO", "setting": "[2]", "value": "decreased"}, {"measurement": "LPS-induced secretion level of TNF-α", "setting": "[2]", "value": "decreased"}, {"measurement": "secretion level of TNF-α", "setting": "TLR2/6", "value": "decreased"}, {"measurement": "intracellular expression level of NLRP3", "setting": "NLRP3 inflammasome", "value": "remarkably decreased"}, {"measurement": "intracellular expression level of active caspase-1 (10 kDa)", "setting": "NLRP3 inflammasome", "value": "remarkably decreased"}, {"measurement": "intracellular expression level of mature IL-1β (17 kDa)", "setting": "NLRP3 inflammasome", "value": "remarkably decreased"}]}
